Twelve compounds from ChEMBL document CHEMBL5131556, “Ibogaine and Their Analogs as Therapeutics for Neurological and Psychiatric Disorders” (ACS Med Chem Lett, 2022) can be followed below.

In test [1] the target is Synaptic vesicular amine transporter (Rattus norvegicus, UniProt Q01827). The experiment in a line: Inhibition of rat VMAT2 transfected in HEK cells using FFN206 as fluorescent substrate preincubated for 1 hr followed by substrate addition and measured after 30 mins by fluorescence plate reader assay. The test is classed as cell-based.
Test [2] concerns the target Sodium-dependent serotonin transporter (Homo sapiens, UniProt P31645). The experiment in a line: Inhibition of human SERT transfected in HEK cells using APP+ as fluorescent substrate preincubated for 1 hr followed by substrate addition and measured after 30 mins by fluorescence plate reader assay. The test is classed as cell-based.

Synaptic vesicular amine transporter, sequence (Q01827 whole entry): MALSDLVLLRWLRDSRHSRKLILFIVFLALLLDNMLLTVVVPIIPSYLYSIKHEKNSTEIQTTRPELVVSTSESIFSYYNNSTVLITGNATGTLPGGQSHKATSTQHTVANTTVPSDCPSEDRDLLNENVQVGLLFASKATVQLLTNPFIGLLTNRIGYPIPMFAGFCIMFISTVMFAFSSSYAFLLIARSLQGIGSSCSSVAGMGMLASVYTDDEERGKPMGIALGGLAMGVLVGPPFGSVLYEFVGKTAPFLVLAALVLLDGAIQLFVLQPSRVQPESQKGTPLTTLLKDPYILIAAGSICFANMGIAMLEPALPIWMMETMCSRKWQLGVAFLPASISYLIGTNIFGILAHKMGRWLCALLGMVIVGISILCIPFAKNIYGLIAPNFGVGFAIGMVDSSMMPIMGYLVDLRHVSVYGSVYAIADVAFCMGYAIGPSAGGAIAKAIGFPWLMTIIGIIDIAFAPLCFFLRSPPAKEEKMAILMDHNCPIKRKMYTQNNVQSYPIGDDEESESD
Sodium-dependent serotonin transporter, sequence (P31645 whole entry): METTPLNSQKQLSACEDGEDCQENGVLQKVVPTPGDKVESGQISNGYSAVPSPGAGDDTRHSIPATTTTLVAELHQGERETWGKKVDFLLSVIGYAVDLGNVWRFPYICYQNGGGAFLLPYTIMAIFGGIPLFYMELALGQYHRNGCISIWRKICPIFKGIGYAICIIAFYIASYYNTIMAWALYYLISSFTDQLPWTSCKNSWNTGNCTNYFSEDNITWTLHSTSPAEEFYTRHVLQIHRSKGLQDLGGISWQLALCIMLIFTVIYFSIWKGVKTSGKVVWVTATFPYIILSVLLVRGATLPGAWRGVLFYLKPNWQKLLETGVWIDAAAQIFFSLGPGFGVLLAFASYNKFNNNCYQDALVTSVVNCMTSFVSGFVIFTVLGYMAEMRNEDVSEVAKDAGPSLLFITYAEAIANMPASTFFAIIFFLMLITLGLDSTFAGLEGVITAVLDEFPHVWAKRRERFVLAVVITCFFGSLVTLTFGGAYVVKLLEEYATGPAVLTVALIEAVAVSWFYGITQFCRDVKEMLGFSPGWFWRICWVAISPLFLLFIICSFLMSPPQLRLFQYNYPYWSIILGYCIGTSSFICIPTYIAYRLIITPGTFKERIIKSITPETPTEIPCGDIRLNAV

As for `CC[C@H]1C[C@@H]2C[C@H]3c4[nH]c5ccc(OC)cc5c4CCN(C2)[C@@H]13`, the IC50 in test [1] was found to be 4000 nM.
Consider `CC[C@H]1C[C@@H]2C[C@H]3c4c(c5cc(OC)ccc5n4C)CCN(C2)[C@@H]13`, for which the half-inhibitory concentration (IC50) in test [1] turned out to be 740 nM; in test [2] it was 1500 nM.
Consider `CC[C@H]1C[C@@H]2C[C@H]3c4[nH]c5ccc(C#N)cc5c4CCN(C2)[C@@H]13`, for which the IC50 in test [1] amounted to 3300 nM; in test [2] it was 26 nM.
Taken in the same sequence, the figures for `CC[C@H]1C[C@@H]2C[C@H]3c4c(c5cc(O)ccc5n4CC)CCN(C2)[C@@H]13` were 70 nM and 1900 nM.
Taken in the same sequence, the figures for `CCc1ccc2c(c1)c1c(n2C)[C@@H]2C[C@H]3C[C@H](CC)[C@@H]2N(CC1)C3` were 750 nM and 910 nM.
Taken in the same sequence, the figures for `CC[C@H]1C[C@@H]2C[C@H]3c4[nH]c5ccccc5c4CCN(C2)[C@@H]13` were 3000 nM and 330 nM.
As for `CC[C@H]1C[C@@H]2C[C@H]3c4[nH]c5ccc(OC)c(Br)c5c4CCN(C2)[C@@H]13`, the IC50 in test [1] stood at 4900 nM; in test [2] it was 670 nM.
With `CC[C@H]1C[C@@H]2C[C@H]3c4c(c5cc(C#N)ccc5n4C)CCN(C2)[C@@H]13`, the IC50 in test [1] amounted to 440 nM; in test [2] it was 5.1 nM.
Taken in the same sequence, the figures for `CC[C@H]1C[C@@H]2C[C@H]3c4c(c5ccccc5n4C)CCN(C2)[C@@H]13` were 1500 nM and 80 nM.
Turning to `CC[C@H]1C[C@@H]2CC3c4[nH]c5ccc(O)cc5c4CCN(C2)[C@H]31`, the IC50 in test [1] stood at 570 nM. In other words, the sub-micromolar range.
On to `CCOc1ccc2[nH]c3c(c2c1)CCN1C[C@@H]2C[C@H](CC)[C@H]1[C@H]3C2`, for which the IC50 in test [1] worked out at 80 nM; in test [2], 9000 nM.
Taken in the same sequence, the figures for `CC[C@H]1C[C@@H]2C[C@H]3c4c(c5cc(O)ccc5n4C)CCN(C2)[C@@H]13` were 170 nM and 59 nM.
